{
  "source": "ChEMBL document CHEMBL5331124",
  "about": "“Degradation of Hexokinase 2 Blocks Glycolysis and Induces GSDME-Dependent Pyroptosis to Amplify Immunogenic Cell Death for Breast Cancer Therapy” (J Med Chem, 2023)",
  "key": {"PANC-1": {"test_system": "PANC-1", "assay": "Antiproliferative activity against human PANC-1 cells assessed as cell growth inhibition measured for 72 hrs by MTT assay", "assay_type": "functional, cell-based", "settings": "PANC-1, 72 h"}, "MDA-MB-231 [1]": {"test_system": "MDA-MB-231", "assay": "Antitumor activity against human MDA-MB-231 cells xenografted in BALB/c nude mouse assessed as increase in N-terminal GSDME level at 50 mg/kg, ip measured after 28 days", "assay_type": "functional, organism-based", "settings": "time 28.0 day"}, "HGC-27": {"test_system": "HGC-27", "assay": "Antiproliferative activity against human HGC-27 cells assessed as cell growth inhibition measured for 72 hrs by MTT assay", "assay_type": "functional, cell-based", "settings": "HGC-27, 72 h"}, "4T1 [2]": {"test_system": "4T1", "assay": "Antitumor immunity against mouse 4T1 cells implanted in BALB/c mouse model assessed as downregulation of IL-10 expression in mouse tumor by ELISA analysis", "assay_type": "functional, cell-based"}, "4T1 [3]": {"test_system": "4T1", "assay": "Antitumor immunity against mouse 4T1 cells implanted in BALB/c mouse model assessed as decrease in PD-L1 protein expression in tumor", "assay_type": "functional, cell-based"}, "[4]": {"assay": "Toxicity in BALB/c mouse implanted with mouse 4T1 cells assessed as pathological changes in spleen at 50 mg/kg, ip measured after 25 days by Hematoxylin -eosin staining based analysis", "assay_type": "organism-based", "settings": "in vivo, 600 h, time 25 day"}, "4T1 [5]": {"test_system": "4T1", "assay": "Induction of mitochondrial damage in mouse 4T1 cells assessed as reduction in ATP level at 20 uM measured for 36 hrs", "assay_type": "functional, cell-based"}, "4T1 [6]": {"test_system": "4T1", "assay": "Antitumor immunity against mouse 4T1 cells implanted in BALB/c mouse model assessed as accumulation of CRT at 20 uM measured for 36 hrs by ELISA analysis", "assay_type": "functional, cell-based"}, "[7]": {"biological_target": "T1, Hexokinase-2 (Mus musculus) (UniProt O08528)", "T1 sequence (whole entry)": "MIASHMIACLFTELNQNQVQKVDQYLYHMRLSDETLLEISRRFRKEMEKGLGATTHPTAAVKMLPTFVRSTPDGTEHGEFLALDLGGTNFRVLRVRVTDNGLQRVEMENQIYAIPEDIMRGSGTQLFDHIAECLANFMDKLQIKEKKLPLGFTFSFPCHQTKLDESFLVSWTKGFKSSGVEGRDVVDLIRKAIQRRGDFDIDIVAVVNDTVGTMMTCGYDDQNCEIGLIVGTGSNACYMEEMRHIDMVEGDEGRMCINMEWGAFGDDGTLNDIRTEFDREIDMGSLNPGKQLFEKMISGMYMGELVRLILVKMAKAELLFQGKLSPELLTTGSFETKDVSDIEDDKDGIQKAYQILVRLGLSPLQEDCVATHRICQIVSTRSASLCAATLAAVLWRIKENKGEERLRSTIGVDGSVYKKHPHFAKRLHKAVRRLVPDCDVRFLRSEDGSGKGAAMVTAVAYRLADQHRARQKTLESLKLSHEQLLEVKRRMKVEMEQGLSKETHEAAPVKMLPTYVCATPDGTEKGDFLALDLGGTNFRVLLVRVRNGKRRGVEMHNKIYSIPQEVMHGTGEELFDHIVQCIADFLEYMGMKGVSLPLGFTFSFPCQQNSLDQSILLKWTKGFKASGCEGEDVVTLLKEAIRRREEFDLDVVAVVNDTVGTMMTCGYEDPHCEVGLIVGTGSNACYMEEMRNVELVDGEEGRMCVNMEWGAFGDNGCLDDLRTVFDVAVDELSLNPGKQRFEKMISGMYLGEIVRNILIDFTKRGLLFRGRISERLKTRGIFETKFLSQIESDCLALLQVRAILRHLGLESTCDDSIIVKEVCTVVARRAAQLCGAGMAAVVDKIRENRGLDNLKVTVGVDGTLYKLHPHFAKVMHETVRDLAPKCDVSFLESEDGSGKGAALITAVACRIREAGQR", "assay": "Induction of HK2 degradation in mouse 4T1 cells at 20 uM measured for 36 hrs by Western blot analysis relative to control", "assay_type": "cell-based"}, "MDA-MB-231 [8]": {"test_system": "MDA-MB-231", "assay": "Induction of pyroptosis in human MDA-MB-231 cells assessed as decrease in full length caspase-3 level at 20 uM incubated for 36 hrs by Western blot analysis", "assay_type": "functional, cell-based"}, "4T1 [9]": {"test_system": "4T1", "assay": "Induction of mitochondrial damage in mouse 4T1 cells assessed as reduction in LDH level at 20 uM measured for 36 hrs", "assay_type": "functional, cell-based"}, "[10]": {"biological_target": "Protein cereblon/Hexokinase-2 (Homo sapiens) (UniProt P52789+Q96SW2)", "sequence (Q96SW2 whole entry, looked up, one chain of several)": "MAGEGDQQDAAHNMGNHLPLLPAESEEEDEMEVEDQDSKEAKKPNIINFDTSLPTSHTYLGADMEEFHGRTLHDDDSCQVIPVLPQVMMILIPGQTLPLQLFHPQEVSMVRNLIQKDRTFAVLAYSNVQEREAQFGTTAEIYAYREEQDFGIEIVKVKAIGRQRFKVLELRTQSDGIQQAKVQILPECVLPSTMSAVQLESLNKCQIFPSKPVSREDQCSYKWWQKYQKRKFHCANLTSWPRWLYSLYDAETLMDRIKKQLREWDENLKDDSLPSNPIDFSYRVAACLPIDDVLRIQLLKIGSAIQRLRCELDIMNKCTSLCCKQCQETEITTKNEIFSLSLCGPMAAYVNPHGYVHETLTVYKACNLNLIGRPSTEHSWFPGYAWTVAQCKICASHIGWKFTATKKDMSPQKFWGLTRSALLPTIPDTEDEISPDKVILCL", "assay": "PROTAC activity at CRBN/HK2 in human MDA-MB-231 cells assessed as […] ternary complex formation at 10 uM incubated for 24 hrs", "assay_type": "cell-based"}, "[11]": {"biological_target": "T2, Hexokinase-2 (Homo sapiens) (UniProt P52789)", "T2 sequence (whole entry)": "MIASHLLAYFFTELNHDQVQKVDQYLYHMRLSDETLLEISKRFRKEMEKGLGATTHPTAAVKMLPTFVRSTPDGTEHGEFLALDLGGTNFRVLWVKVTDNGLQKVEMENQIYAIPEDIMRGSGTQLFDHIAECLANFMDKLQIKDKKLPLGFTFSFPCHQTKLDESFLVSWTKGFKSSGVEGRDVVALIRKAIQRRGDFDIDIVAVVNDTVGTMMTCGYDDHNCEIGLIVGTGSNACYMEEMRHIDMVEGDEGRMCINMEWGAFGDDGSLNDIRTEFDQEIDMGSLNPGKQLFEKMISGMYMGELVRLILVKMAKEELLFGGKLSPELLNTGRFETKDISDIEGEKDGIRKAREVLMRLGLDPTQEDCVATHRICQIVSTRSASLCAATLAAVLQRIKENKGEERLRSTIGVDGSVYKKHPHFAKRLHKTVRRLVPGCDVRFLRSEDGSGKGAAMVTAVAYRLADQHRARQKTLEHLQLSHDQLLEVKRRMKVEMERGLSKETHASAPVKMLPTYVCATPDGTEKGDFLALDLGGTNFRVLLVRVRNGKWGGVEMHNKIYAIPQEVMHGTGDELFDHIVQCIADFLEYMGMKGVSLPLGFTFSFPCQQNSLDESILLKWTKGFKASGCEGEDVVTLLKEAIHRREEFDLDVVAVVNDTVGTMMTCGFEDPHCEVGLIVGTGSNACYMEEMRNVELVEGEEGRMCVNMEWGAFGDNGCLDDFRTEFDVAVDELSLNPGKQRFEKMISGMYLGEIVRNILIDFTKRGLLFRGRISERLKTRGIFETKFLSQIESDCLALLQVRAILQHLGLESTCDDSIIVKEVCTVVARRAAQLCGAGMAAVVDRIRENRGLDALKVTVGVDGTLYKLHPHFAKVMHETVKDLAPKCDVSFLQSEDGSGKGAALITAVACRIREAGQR", "assay": "Induction of HK2 degradation in human MDA-MB-231 cells assessed as increase in Bax expression at 20 uM measured for 36 hrs by Western blot analysis", "assay_type": "cell-based"}, "MDA-MB-231 [12]": {"test_system": "MDA-MB-231", "assay": "Cytotoxicity against human MDA-MB-231 cells assessed as inhibition of cell growth at 1 to 100 uM incubated for 48 hrs by CCK-8 assay", "assay_type": "functional, cell-based", "settings": "dose 1-100 µM"}, "MCF7": {"test_system": "MCF7", "assay": "Antiproliferative activity against human MCF7 cells assessed as cell growth inhibition measured for 72 hrs by MTT assay", "assay_type": "functional, cell-based", "settings": "MCF7, 72 h"}, "[13]": {"biological_target": "Protein cereblon/Hexokinase-2 (Mus musculus) (UniProt O08528+Q8C7D2)", "sequence (Q8C7D2 whole entry, looked up, one chain of several)": "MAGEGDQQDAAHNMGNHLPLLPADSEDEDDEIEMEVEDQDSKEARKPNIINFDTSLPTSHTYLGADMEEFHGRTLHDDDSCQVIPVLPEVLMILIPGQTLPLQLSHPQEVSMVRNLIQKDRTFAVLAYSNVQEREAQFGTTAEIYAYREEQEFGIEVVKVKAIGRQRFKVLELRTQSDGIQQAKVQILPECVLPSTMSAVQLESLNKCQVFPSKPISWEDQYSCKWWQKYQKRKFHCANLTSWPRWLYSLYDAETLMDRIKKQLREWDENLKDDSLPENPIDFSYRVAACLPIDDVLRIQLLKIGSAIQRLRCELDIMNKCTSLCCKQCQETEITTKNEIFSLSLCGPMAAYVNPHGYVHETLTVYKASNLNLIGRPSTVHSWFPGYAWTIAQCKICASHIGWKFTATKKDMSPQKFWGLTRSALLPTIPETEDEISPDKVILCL", "assay": "PROTAC activity at CRBN/HK2 in mouse 4T1 cells assessed as HK2 degradation at 20 uM incubated for 36 hrs", "assay_type": "cell-based"}},
  "note": "Activity calls are given as the source filed them. The calls are words filed in the database; no cut-off is given here.",
  "data": [
    {"smiles": "O=C1CCC(N2C(=O)c3cccc(NCCCCNC(=O)c4nn(Cc5ccc(Cl)cc5Cl)c5ccccc45)c3C2=O)C(=O)N1", "note": "(stereo unspecified)", "values": [
      {"measurement": "IC50", "setting": "PANC-1", "result": 31.5, "unit": "µM"},
      {"measurement": "Activity", "setting": "MDA-MB-231 [1]", "result": "Active"},
      {"measurement": "IC50", "setting": "HGC-27", "result": 6.11, "unit": "µM"},
      {"measurement": "Activity", "setting": "4T1 [2]", "result": "Active"},
      {"measurement": "Activity", "setting": "4T1 [3]", "result": "Active"},
      {"measurement": "Activity", "setting": "[4]", "result": "Non-Toxic"},
      {"measurement": "Activity", "setting": "4T1 [5]", "result": "Active"},
      {"measurement": "Activity", "setting": "4T1 [6]", "result": "Active"},
      {"measurement": "Activity", "setting": "[7]", "result": 71.1, "unit": "%"},
      {"measurement": "Activity", "setting": "MDA-MB-231 [8]", "result": "Active"},
      {"measurement": "Activity", "setting": "4T1 [9]", "result": "Active"},
      {"measurement": "Activity", "setting": "[10]", "result": "Active"},
      {"measurement": "Activity", "setting": "[11]", "result": "Active"},
      {"measurement": "Activity", "setting": "MDA-MB-231 [12]", "result": "Active"},
      {"measurement": "IC50", "setting": "MCF7", "result": 21.7, "unit": "µM"},
      {"measurement": "Activity", "setting": "[13]", "result": "Active"}
    ]}
  ]
}
